Assay results: publication PMC6481345, “A novel anti-melanoma SRC-family kinase inhibitor” (Oncotarget, 2019)

Experiments:
[1] = Clinical signs of toxicity in tumor bearing mice; assay type: in vivo; conditions: daily intraperitoneal SAB298
Procedure: All procedures involving animals were approved by the Institutional Animal Care and Use Committee of Yale University. YUSIK melanoma cells were grown to 80% confluency in 150 cm^2 flasks, detached by trypsinization, washed with PBS, and cell pellets were resuspended in 1:1 mixture of PBS and matrigel (BD Bioscience Cat #354234) to sustain cell viability. The cells (4 × 10^6/100 µl) were injected subcutaneously in the back flank of six weeks old female athymic Nude-Foxn1nu (nu/nu) mice (Charles River Laboratories, Wilmington, MA), and tumors were measuring daily with a caliper (length, width, and depth). When tumors reached palpable size (between 25–40 mm^3), the animals were randomized by tumor size and body weigh into two groups and were daily injected intraperitoneally with SAB298 (batch #AU0588-91, Sabila Biosciences LLC, 5 Overlook Road, New City, New York, 10956) or vehicle as controls (N = 6/each). […] The vehicle contained the same reagents but without SAB298.
The tumors size and body weight were measured daily and the mice were checked for clinical signs of toxicity, such as lethargy, neurological symptoms, diarrhea, discharges, morbidity, piloerection and weight loss (>20%).

phospho-PP2A Y307 = experiment: Western blot, inactivated PP2A; assay type: cell-based, human; conditions: YUSIK and YUSIV melanoma cells
Procedure: (§1) We used standard techniques to identify changes in intracellular signaling in response to various treatments. Briefly, melanoma cells were incubated with test compounds, using DMSO as a control, collected by scraping on ice, and lysed in RIPA buffer supplemented with protease and phosphatase inhibitors (MA #78428, and #78425, respectively, Thermo Fisher Scientific, Waltham, MA). Protein concentrations were measured with the BioRad kit (Bio-Rad Laboratories, Hercules, CA), SDS sample buffer was added, extracts were heated at 95°C, sonicated and centrifuged. Cell extracts (20 µg/lane) were fractionated in 3%–8% or 4–12 % tris-acetate gel (NP0006, NuPAGE Life Technologies). […]

tyrosinase = experiment: Western blot, tyrosinase levels; assay type: cell-based, human; conditions: YUSIK, YUKIM and YUPEET; 0.5 µM for 20 hrs
Procedure: as §1

phospho-SHP2 Y542 = experiment: Western blot, phospho-SHP2; assay type: cell-based, human; conditions: melanoma cell lines
Procedure: as §1

Q: What does the source list for Nc1ncnc2c1c(-c1ccc(Oc3ccccc3)cc1)nn2C[C@@H]1SSC[C@@H]1O [SAB298, (3S, 4S)-3-((4-amino-3-(4-phenoxyphenyl)-1H-pyrazolo[3,4-d]pyrimidin-1-yl)methyl)-1,2-dithiolan-4-ol]?
A: Clinical signs of toxicity (lethargy, neurological symptoms, diarrhea, discharges, morbidity, piloerection, weight loss >20%) [1]: None of them or any other abnormal indication were observed; inactivated PP2A (phospho-PP2A Y307) level (phospho-PP2A Y307): increase in the levels of inactivated PP2A; tyrosinase levels (tyrosinase): suppressed the levels of tyrosinase; phospho-SHP2 Y542 level (phospho-SHP2 Y542): inactivated phospho-SHP2 Y542 in YUSIK, YUROB and YUSOC melanoma cell lines, but not in YUGASP
